The target in this experiment is T1, human TLR7 (Homo sapiens, UniProt Q9NYK1).
T1 construct: expressed in transfected cells; host or cells: HEK293 cell line stably expressing the pNiFty2-SEAP reporter plasmid; TLR7 in pUNO vector, blasticidin selection
T1 sequence (Q9NYK1 27-1049): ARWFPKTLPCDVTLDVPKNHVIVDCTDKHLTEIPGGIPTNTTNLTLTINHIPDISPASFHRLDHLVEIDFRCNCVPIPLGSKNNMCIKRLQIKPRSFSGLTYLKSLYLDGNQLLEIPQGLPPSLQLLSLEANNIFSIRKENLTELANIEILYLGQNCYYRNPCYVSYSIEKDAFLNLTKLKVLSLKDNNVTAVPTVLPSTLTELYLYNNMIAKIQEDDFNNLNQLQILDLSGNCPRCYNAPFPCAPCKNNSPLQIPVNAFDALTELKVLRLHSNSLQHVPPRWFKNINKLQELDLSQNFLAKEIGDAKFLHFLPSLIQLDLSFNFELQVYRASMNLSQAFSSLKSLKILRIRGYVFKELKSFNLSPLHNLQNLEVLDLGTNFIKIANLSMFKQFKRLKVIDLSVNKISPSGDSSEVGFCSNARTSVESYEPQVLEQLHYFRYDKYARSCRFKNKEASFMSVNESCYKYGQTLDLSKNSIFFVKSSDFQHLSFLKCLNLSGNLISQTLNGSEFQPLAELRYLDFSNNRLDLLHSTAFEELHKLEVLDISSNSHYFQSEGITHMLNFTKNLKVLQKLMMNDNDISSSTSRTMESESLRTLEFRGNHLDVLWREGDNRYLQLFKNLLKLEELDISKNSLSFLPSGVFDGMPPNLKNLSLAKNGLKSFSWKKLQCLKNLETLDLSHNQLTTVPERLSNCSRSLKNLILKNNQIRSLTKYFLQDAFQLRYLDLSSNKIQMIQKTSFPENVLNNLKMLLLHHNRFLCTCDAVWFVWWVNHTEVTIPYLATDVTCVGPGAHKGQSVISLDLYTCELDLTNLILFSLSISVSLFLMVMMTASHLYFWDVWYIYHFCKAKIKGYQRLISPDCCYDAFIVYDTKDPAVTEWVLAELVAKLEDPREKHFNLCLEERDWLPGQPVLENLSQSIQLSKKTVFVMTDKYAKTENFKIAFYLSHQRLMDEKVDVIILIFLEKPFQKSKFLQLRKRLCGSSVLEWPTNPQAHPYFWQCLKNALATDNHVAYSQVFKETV
The experiment can be described thus: Human TLR7 Assay (SEAP reporter in HEK293 cells).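 Note: Read-out is secreted alkaline phosphatase made under an NFkB/ELAM-1 composite promoter, reporting TLR7-triggered NFkB activation.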 It counts as cell-based. The note with it: HEK293 cell line expressing human TLR7 and pNiFty2-SEAP reporter, overnight incubation at 37° C., 0.1% DMSO; read-out: hTLR7 EC50.

Source text: The most common variant sequence of human TLR7 (represented by the EMBL sequence AF240467) was cloned into the mammalian cell expression vector pUNO and transfected into a HEK293 cell line already stably expressing the pNiFty2-SEAP reporter plasmid; integration of the reporter gene was maintained by selection with the antibiotic zeocin. Transfectants with stable TLR7 expression were selected using the antibiotic blasticidin. In this reporter cell-line, expression of secreted alkaline phosphatase (SEAP) is controlled by an NFkB/ELAM-1 composite promoter comprising five NFkB sites combined with the proximal ELAM-1 promoter. TLR signaling leads to the translocation of NFkB and activation of the promoter results in expression of the SEAP gene. TLR7-specific activation was assessed by determining the level of SEAP produced following overnight incubation of the cells at 37° C. with the standard compound in the presence of 0.1% (v/v) dimethylsulfoxide (DMSO). Concentration dependent induction of SEAP production by compounds was expressed as the concentration of compound which produced half of the maximal level of SEAP induction for that compound (EC50).

One may read the EC50 as the concentration that produces a half-maximal response. Take `CCCOC(=O)COc1cccc(CN(CCCn2c(CCOC)nc3c(N)nc4ccccc4c32)C(=O)CN(CC)CC)c1` [Example 26, Propyl 2-{3-[(N-{3-[4-amino-2-(2-methoxyethyl)-1H-imidazo[4,5-c]quinolin-1-yl]propyl}-2-(diethylamino)acetamido)methyl]phenoxy}acetate]: the EC50 worked out at 0.0546 µM.
With `CCN(CC)CC(=O)N(CCCn1c(CCOC)nc2c(N)nc3ccccc3c21)Cc1cccc(OCC(=O)OCC(C)C)c1` [Example 28, Isobutyl 2-{3-[(N-{3-[4-amino-2-(2-methoxyethyl)-1H-imidazo[4,5-c]quinolin-1-yl]propyl}-2-(diethylamino)acetamido)methyl]phenoxy}acetate], the half-maximal effective concentration (EC50) stood at 0.0499 µM.
With `CCOCc1nc2c(N)nc3ccccc3c2n1CCCN(Cc1cccc(OCC(=O)OC(C)C)c1F)C(=O)CN(C)C` [Example 167, Isopropyl 2-{3-[(N-{3-[4-amino-2-(ethoxymethyl)-1H-imidazo[4,5-c]quinolin-1-yl]propyl}-2-{dimethylamino}acetamido)methyl]-2-fluorophenoxy}acetate] the figure was 0.716 µM; with `CCN(C)CC(=O)N(CCCn1c(CCOC)nc2c(N)nc3ccccc3c21)Cc1cccc(OCC(=O)OC2CCCC2)c1` [Example 111, Cyclopentyl 2-{3-[(N-{3-[4-amino-2-(2-methoxyethyl)-1H-imidazo[4,5-c]quinolin-1-yl]propyl}-2-{ethyl(methyl)amino}acetamido)methyl]phenoxy}acetate], 0.123 µM.
Next, `CCCCc1nc2c(N)nc3ccccc3c2n1CCCN(Cc1cccc(OCC(=O)OC)c1)C(=O)CN(CC)CC` [Example 14, Methyl (3-{[[3-(4-amino-2-butyl-1H-imidazo[4,5-c]quinolin-1-yl)propyl](N,N-diethylglycyl)amino]methyl}phenoxy)acetate]: 0.0736 µM; `COCCc1nc2c(N)nc3ccccc3c2n1CCOCCN(Cc1cccc(OCC(=O)OC(C)C)c1)C(=O)NCCN1CCCCC1` [Example 152, Isopropyl 2-(3-{[1-(2-{2-[4-amino-2-(2-methoxyethyl)-1H-imidazo[4,5-c]quinolin-1-yl]ethoxy}ethyl)-3-{2-(piperidin-1-yl)ethyl}ureido]methyl}phenoxy)acetate]: 0.266 µM.
With `COCCc1nc2c(N)nc3ccccc3c2n1CCCCN(CCCN1CCOCC1)Cc1cccc(OC(C)(C)C(=O)OC)c1` [Example 137, Methyl 2-{3-[({4-[4-amino-2-(2-methoxyethyl)-1H-imidazo[4,5-c]quinolin-1-yl]butyl}{3-morpholinopropyl}amino)methyl]phenoxy}-2-methylpropanoate] the figure was 0.0877 µM.
Turning to `CCOCc1nc2c(N)nc3ccccc3c2n1CCCN(Cc1cccc(OC(C)(C)C(=O)OCC)c1)C(=O)CN(CC)CC` [Example 162, Ethyl 2-{3-[(N-{3-[4-amino-2-(ethoxymethyl)-1H-imidazo[4,5-c]quinolin-1-yl]propyl}-2-{diethylamino}acetamido)methyl]phenoxy}-2-methylpropanoate], the EC50 was found to be 0.0964 µM.
Take `CCOC(=O)COc1ccc(CN(CCCn2c(CCOC)nc3c(N)nc4ccccc4c32)C(=O)CN(CC)CC)cc1` [Example 37, Ethyl 2-{4-[(N-{3-[4-amino-2-(2-methoxyethyl)-1H-imidazo[4,5-c]quinolin-1-yl]propyl}-2-(diethylamino)acetamido)methyl]phenoxy}acetate]: the concentration giving a half-maximal response (EC50) was determined as 0.0383 µM.
Next, `CCN(CC)CC(=O)N(CCCn1c(CCOC)nc2c(N)nc3ccccc3c21)Cc1cccc(OCC(=O)OC(C)C)c1C` [Example 147, Isopropyl 2-{3-[(N-{3-[4-amino-2-(2-methoxyethyl)-1H-imidazo[4,5-c]quinolin-1-yl]propyl}-2-{diethylamino}acetamido)methyl]-2-methylphenoxy}acetate]: 0.183 µM; `COCCc1nc2c(N)nc3ccccc3c2n1CCCN(Cc1cccc(OCC(=O)OC)c1)C(=O)CN1CCCCC1` [Example 19, Methyl (3-{[[3-(4-amino-2-(2-methoxyethyl)-1H-imidazo[4,5-c]quinolin-1-yl)propyl](piperidin-1-ylacetyl)amino]methyl}phenoxy)acetate]: 0.178 µM; `CCOC(=O)COc1cccc(CN(CCCn2c(CCOC)nc3c(N)nc4ccccc4c32)C(=O)CN(CC)CC)c1F` [Example 93, Ethyl 2-{3-[(N-{3-[4-amino-2-(2-methoxyethyl)-1H-imidazo[4,5-c]quinolin-1-yl]propyl}-2-{diethylamino}acetamido)methyl]-2-fluorophenoxy}acetate]: 0.0739 µM.
With `CCOC(=O)COc1cc(CN(CCN2CCCCC2)C(=O)NCCCCn2c(CCOC)nc3c(N)nc4ccccc4c32)ccc1F` [Example 143, Ethyl 2-{5-[(3-{4-[4-amino-2-(2-methoxyethyl)-1H-imidazo[4,5-c]quinolin-1-yl]butyl}-1-{2-(piperidin-1-yl)ethyl}ureido)methyl]-2-fluorophenoxy}acetate] the figure was 0.0494 µM.
Take `CCOC(=O)COc1cccc(CN(CCCCn2c(CCOC)nc3c(N)nc4ccccc4c32)C(=O)NCCN(C)C)c1` [Example 127, Ethyl 2-{3-[(1-{4-[4-amino-2-(2-methoxyethyl)-1H-imidazo[4,5-c]quinolin-1-yl]butyl}-3-{2-(dimethylamino)ethyl}ureido)methyl]phenoxy}acetate]: the EC50 amounted to 0.0429 µM.
With `CCCCc1nc2c(N)nc3ccccc3c2n1CCCN(Cc1ccc(OCC(=O)OC)cc1)C(=O)CN1CCN(CCOC)CC1` [Example 8, Methyl {4-[([3-(4-amino-2-butyl-1H-imidazo[4,5-c]quinolin-1-yl)propyl]{[4-(2-methoxyethyl)piperazin-1-yl]acetyl}amino)methyl]phenoxy}acetate] the figure was 0.904 µM.
Next, `CCOC(=O)COc1cc(CN(CCCn2c(CCOC)nc3c(N)nc4ccccc4c32)C(=O)CN(CC)CC)ccc1F` [Example 119, Ethyl 2-{5-[(N-{3-[4-amino-2-(2-methoxyethyl)-1H-imidazo[4,5-c]quinolin-1-yl]propyl}-2-{diethylamino}acetamido)methyl]-2-fluorophenoxy}acetate]: 0.0932 µM; `CCN(CC)CC(=O)N(CCCn1c(CCOC)nc2c(N)nc3ccccc3c21)Cc1ccc(OCC(=O)OC)cc1` [Example 36, Methyl 2-{4-[(N-{3-[4-amino-2-(2-methoxyethyl)-1H-imidazo[4,5-c]quinolin-1-yl]propyl}-2-(diethylamino)acetamido)methyl]phenoxy}acetate]: 0.0845 µM; `CCOC(=O)C(C)(C)Oc1cccc(CN(CCCn2c(CCOC)nc3c(N)nc4ccccc4c32)C(=O)CN(C)CC)c1` [Example 150, Ethyl 2-{3-[(N-{3-[4-amino-2-(2-methoxyethyl)-1H-imidazo[4,5-c]quinolin-1-yl]propyl}-2-{ethyl(methyl)amino}acetamido)methyl]phenoxy}-2-methylpropanoate]: 0.0846 µM.
Next, `CCN(CC)CC(=O)N(CCCn1c(CCOC)nc2c(N)nc3ccccc3c21)Cc1ccc(OC)c(OCC(=O)OC(C)C)c1` [Example 72, Isopropyl 2-{5-[(N-{3-[4-amino-2-(2-methoxyethyl)-1H-imidazo[4,5-c]quinolin-1-yl]propyl}-2-{diethylamino}acetamido)methyl]-2-methoylphenoxy}acetate]: 0.0558 µM; `CCN(C)CC(=O)N(CCCn1c(CCOC)nc2c(N)nc3ccccc3c21)Cc1cccc(OC(C)(C)C(=O)OC)c1` [Example 151, Methyl 2-{3-[(N-{3-[4-amino-2-(2-methoxyethyl)-1H-imidazo[4,5-c]quinolin-1-yl]propyl}-2-{ethyl(methyl)amino}acetamido)methyl]phenoxy}-2-methylpropanoate]: 0.082 µM; `CCCCc1nc2c(N)nc3ccccc3c2n1CCCN(Cc1cccc(OC(C)(C)C(=O)OCC)c1)C(=O)CN(CC)CC` [Example 153, Ethyl 2-[3-({N-[3-(4-amino-2-butyl-1H-imidazo[4,5-c]quinolin-1-yl)propyl]-2-(diethylamino)acetamido}methyl)phenoxy]-2-methylpropanoate]: 0.0861 µM.
In the case of `CCOC(=O)COc1ccc(CN(CCCCn2c(CCOC)nc3c(N)nc4ccccc4c32)C(=O)NCCN2CCCCC2)cc1` [Example 125, Ethyl 2-{4-[(1-{4-[4-amino-2-(2-methoxyethyl)-1H-imidazo[4,5-c]quinolin-1-yl]butyl}-3-{2-(piperidin-1-yl)ethyl}ureido)methyl]phenoxy}acetate], the EC50 was 0.0112 µM.

These data come from US20110136801A1, “Novel Compounds” (Dainippon Sumitomo Pharma Co. Ltd., priority 2009, published 2011).
